We go through 15 compounds from patent US7241579B2, “Method of screening for GPR40 ligands” (SmithKline Beecham Corporation, priority 2000, dated 2007).

The subject of the first assay is CHO cells containing GAL4/Elk1-luciferase reporter constructs. Description: GAL4/Elk-1-luciferase reporter in host CHO cells (reporter only), with and without pertussis toxin. The assay is classed as cell-based. The settings on record: 1 ug/ml pertussis toxin 16 hours. An excerpt: To further test the coupling of GPR40 to Gαi/Gαq a Gal4/Elk-1 reporter was used. A stable, clonal reporter line was created by transfecting CHO cells with a plasmid that contains an expression construct for GAL4/Elk-1 and a GAL4-luciferase reporter construct. A similar reporter system can now be purchased from Stratagene (under the trademark […]®). An expression construct for human GPR40 which contains a G418 resistance construct was transfected into the host CHO GAL4/Elk-1 reporter cell line (10 ug plasmid DNA pCR3-GPR40) via electroporation. The cell lines were selected for with 500 ug/mL G418 until all cells in the control were dead and clones were then picked. The Gal4/Elk-1 reporter can be activated through Gq or Gi. To confirm coupling via Gi, cells were treated with pertussis toxin treatment which ADP-ribosylates Gαi preventing its interaction with receptors (Bokoch et al., J. Biol. Chem 258:2072 (1983)). Pertussis toxin has no known effect on Gαq.
Host cells and those transfected with the GPR40 construct were plated in a 96-well tissue culture plate at 2000 cells/well in DMEM/F12 supplemented with 5% FBS. After 48 hours at 37° C. at 5% CO2, the cells were placed in serum-free DMEM/F12 in the presence or absence of 1 ug/ml pertussis toxin. After 16 hours at 37° C., 5% CO2 the host cells were treated with: lysophosphatidic acid (oleoyl) (LPA) which couples through GαI to activate MAP kinase (Hordijk et al., J. Biol. Chem. 269: 645 (1994)); thrombin which couples through Gαi and Gαq (Hung et al., J. Biol. Chem. 267:20831 (1992)); or 5,8,11-Eicosatriynoic acid (a GPR40 ligand), at the concentrations indicated. The host cells containing the GPR40 construct were stimulated with or 5,8,11-Eicosatriynoic acid at the concentrations indicated. Controls for lysophosphatidic acid contained 0.5% DMSO; controls for […] contained 0.05% ethanol. Luciferase activity was assayed 4 hours after treatment using a luciferase reporter gene assay kit available under the trademark LUCLITE®, as per manufacturers instructions (Packard Bioscience).
Regarding `CCCCCCCC/C=C\CCCCCCCC(=O)OC[C@@H](O)COP(=O)(O)O` [LPA, lysophosphatidic acid (oleoyl)], the “agonist-stimulated reporter activity after pertussis toxin treatment” value is listed as “completely abolished”.
The same measure, in the same setting: under thrombin stands “only partially attenuated”.

The target of the next assay is human GPR40 (Homo sapiens, UniProt O14842). Kind of assay: FLIPR intracellular calcium response in HEK-293 cells transiently expressing GPR40. It counts as cell-based. As to conditions: EC50 uM, FLIPR, GPR40 stimulation; Additional Fatty Acid Compounds. More on the design: expressed in transfected cells; host or cells: HEK-293 (transient). From the text: The Fluorometric Imaging Plate Reader (FLIPR™, Molecular Devices, UK) measures intracellular fluorescense in multi-well microplates. Where a GPCR couples to a calcium signalling pathway, the FLIPR system can be used with cells expressing the G-protein coupled receptor and containing calcium-sensitive fluorescent dyes, to monitor the intracellular calcium flux that occurs after activation of the G-coupled receptor. See, e.g., Kirk et al., J. Biomolecular Screening, 1:75 (1996).
human GPR40, sequence (O14842 whole entry): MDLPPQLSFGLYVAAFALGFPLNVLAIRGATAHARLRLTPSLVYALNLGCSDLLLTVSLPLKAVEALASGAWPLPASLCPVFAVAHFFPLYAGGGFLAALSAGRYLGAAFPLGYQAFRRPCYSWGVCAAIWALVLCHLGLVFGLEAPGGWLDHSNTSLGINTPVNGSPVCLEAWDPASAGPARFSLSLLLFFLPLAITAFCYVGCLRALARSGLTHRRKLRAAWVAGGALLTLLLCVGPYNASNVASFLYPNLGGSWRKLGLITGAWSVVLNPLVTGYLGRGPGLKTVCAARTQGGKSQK
The assays utilized a G-protein cocktail (+GPC) that contained chimeric and promiscuous G-proteins, as is known in the art of screening orphan G-protein coupled receptors.
As to `CCCCC/C=C\C/C=C\CCCCCCCC(=O)O` [Linoleic acid], the EC50 came out at 9.5 µM.
Still for that read-out and setting: as for `CC/C=C\C/C=C\C/C=C\CCCCCCCC(=O)O` [Linolenic acid], the figure is 5.5 µM.

The same assay, now with this note: EC50 (M), FLIPR, GPR40 stimulation; Additional Fatty Acid Compounds.
Consider `CCCCC/C=C\C/C=C\CCCCCCCC(=O)O` [Linoleic acid], for which the EC50 worked out at 9.54 µM.
For `CC/C=C\C/C=C\C/C=C\CCCCCCCC(=O)O` [Linolenic acid], the EC50 was found to be 5.5 µM.

The assay is the same for the next values; noted with them: FLIPR, GPR40 stimulation; Additional Fatty Acid Compounds; read-out: EC50 uM.
Regarding `C#CCCCCCCCCCCCCCCCC(=O)O` [17-Octadecynoic acid], the EC50 is 7.6 µM.
Consider `CCCCC/C=C\C/C=C\C/C=C\C/C=C\CCCC(=O)O` [Arachidonic acid], for which the EC50 amounted to 9.1 µM.
Same read-out and setting: as for `CCCCC/C=C\C/C=C\C/C=C\CCCCCCC(=O)O` [Dihomo-gamma-linolenic acid], the figure is 7.2 µM; as for `CC/C=C\C/C=C\C/C=C\C/C=C\C/C=C\CCCCCC(=O)O` [Docosa-7Z,10Z,13Z,16Z,19Z-pentaenoic acid], 4.7 µM.
Still for that read-out and setting: as for `CC/C=C\C/C=C\C/C=C\CCCCCCCCCCCC(=O)O` [Docosa-13Z,16Z,19Z-trienoic acid], the figure is 6.8 µM.
Still for that read-out and setting: as for `CC/C=C\C/C=C\C/C=C\C/C=C\C/C=C\CCCC(=O)O` [Eicosa-5Z,8Z,11Z,14Z,17Z-pentaenoic acid], the figure is 6.8 µM.
`CCCCCCCCCCC/C=C\C/C=C\CCCC(=O)O` [Eicosa-5Z,8Z-dienoic acid]: the EC50 is 7.8 µM.
Same read-out and setting: as for `CC/C=C\C/C=C\C/C=C\CCCCCCCCCC(=O)O` [Eicosa-11Z,14Z,17Z-trienoic acid], the figure is 11.2 µM; as for `CCCCC/C=C\C/C=C\CCCCCCCCCC(=O)O` [Eicosa-11Z,14Z-dienoic acid], 10.7 µM; as for `CCC=CCC=CCC=CCC=CCC=CC/C=C\CCC(=O)O` [cis-4,7,10,13,16,19-Docosahexaenoic acid], 1.6 µM.

The same assay, now with this note: FLIPR, GPR40 stimulation; Additional Fatty Acid Compounds; read-out: EC50.
In the case of `C#CCCCCCCCCCCCCCCCC(=O)O` [17-Octadecynoic acid], the EC50 stood at 7.58 µM.
Consider `CCCCC/C=C\C/C=C\C/C=C\C/C=C\CCCC(=O)O` [Arachidonic acid], for which the EC50 turned out to be 9.12 µM.
The same measure, in the same setting: under `CCCCC/C=C\C/C=C\C/C=C\CCCCCCC(=O)O` [Dihomo-gamma-linolenic acid] stands 7.24 µM; under `CC/C=C\C/C=C\C/C=C\C/C=C\C/C=C\CCCCCC(=O)O` [Docosa-7Z,10Z,13Z,16Z,19Z-pentaenoic acid], 4.68 µM; under `CC/C=C\C/C=C\C/C=C\CCCCCCCCCCCC(=O)O` [Docosa-13Z,16Z,19Z-trienoic acid], 6.76 µM.
On the same count and under the same terms, as for `CC/C=C\C/C=C\C/C=C\C/C=C\C/C=C\CCCC(=O)O` [Eicosa-5Z,8Z,11Z,14Z,17Z-pentaenoic acid], the figure is 6.76 µM.
As for `CCCCCCCCCCC/C=C\C/C=C\CCCC(=O)O` [Eicosa-5Z,8Z-dienoic acid], the EC50 is 7.76 µM.
Still for that read-out and setting: as for `CC/C=C\C/C=C\C/C=C\CCCCCCCCCC(=O)O` [Eicosa-11Z,14Z,17Z-trienoic acid], the figure is 11.2 µM; as for `CCCCC/C=C\C/C=C\CCCCCCCCCC(=O)O` [Eicosa-11Z,14Z-dienoic acid], 10.7 µM.
On the same count and under the same terms, under `CCC=CCC=CCC=CCC=CCC=CC/C=C\CCC(=O)O` [cis-4,7,10,13,16,19-Docosahexaenoic acid] stands 1.62 µM.

The assay is the same for the next values; noted with them: FLIPR, GPR40 stimulation; first of up to 3 experiments; read-out: Mean pEC50 (converted).
With `CCCCC/C=C\C/C=C\C/C=C\C/C=C\CCCC(=O)O` [Arachidonic acid], the EC50 was 18.2 µM.
Same read-out and setting: as for `CCCCCCCCCC(=O)O` [Capric acid], the figure is 18.2 µM; as for `CCC=CCC=CCC=CCC=CCC=CC/C=C\CCC(=O)O` [cis-4,7,10,13,16,19-Docosahexaenoic acid], 6.61 µM.

Still in this assay, the particulars now being: FLIPR, GPR40 stimulation; second of up to 3 experiments; read-out: Mean pEC50 (converted).
As for `CCCCC/C=C\C/C=C\C/C=C\C/C=C\CCCC(=O)O` [Arachidonic acid], the EC50 was 12.9 µM.
For `CCCCCCCCCC(=O)O` [Capric acid], the EC50 is 11 µM.
For the compound `CCC=CCC=CCC=CCC=CCC=CC/C=C\CCC(=O)O` [cis-4,7,10,13,16,19-Docosahexaenoic acid], the EC50 was 2.95 µM.

Still in this assay, the particulars now being: FLIPR, GPR40 stimulation; third experiment; read-out: Mean pEC50 (converted).
Turning to `CCCCC/C=C\C/C=C\C/C=C\C/C=C\CCCC(=O)O` [Arachidonic acid], the EC50 was 7.24 µM.
On the same count and under the same terms, under `CCCCCCCCCC(=O)O` [Capric acid] stands 14.5 µM.
Same read-out and setting: under `CCC=CCC=CCC=CCC=CCC=CC/C=C\CCC(=O)O` [cis-4,7,10,13,16,19-Docosahexaenoic acid] stands 3.98 µM.

The assay is the same for the next values; noted with them: Mean pEC50, FLIPR, GPR40 stimulation; first of up to 3 experiments.
Regarding `CCCCC/C=C\C/C=C\CCCCCCCC(=O)O` [Linoleic acid], the EC50 was 16.6 µM.
On the same count and under the same terms, under `CC/C=C\C/C=C\C/C=C\CCCCCCCC(=O)O` [Linolenic acid] stands 11.7 µM.

The assay is the same for the next values; noted with them: Mean pEC50, FLIPR, GPR40 stimulation; second of up to 3 experiments.
As to `CCCCC/C=C\C/C=C\CCCCCCCC(=O)O` [Linoleic acid], the EC50 is 20.9 µM.
The same measure, in the same setting: under `CC/C=C\C/C=C\C/C=C\CCCCCCCC(=O)O` [Linolenic acid] stands 21.9 µM.

Still in this assay, the particulars now being: Mean pEC50, FLIPR, GPR40 stimulation; third experiment.
On to `CC/C=C\C/C=C\C/C=C\CCCCCCCC(=O)O` [Linolenic acid], for which the EC50 was 7.59 µM.

Staying with this assay, now noted: Mean pEC50 of 3 expts, FLIPR, GPR40 stimulation; overall mean (n = 1 or 2 where stated).
With `CCCCC/C=C\C/C=C\C/C=C\C/C=C\CCCC(=O)O` [Arachidonic acid], the EC50 was 12 µM.
Same read-out and setting: under `CCCCCCCCCC(=O)O` [Capric acid] stands 14.1 µM; under `CCCCC/C=C\C/C=C\CCCCCCCC(=O)O` [Linoleic acid], 18.6 µM; under `CC/C=C\C/C=C\C/C=C\CCCCCCCC(=O)O` [Linolenic acid], 12.6 µM.
On the same count and under the same terms, as for `CCC=CCC=CCC=CCC=CCC=CC/C=C\CCC(=O)O` [cis-4,7,10,13,16,19-Docosahexaenoic acid], the figure is 4.27 µM.
